Experimental data reported in US4077954A, “N-(p-methylphenethyl)-4a-aryl-trans-decahydroisoquinolines” (priority 1976, dated 1978).
Counter-ions that a name gives are not always drawn. Like-named read-outs stand apart in the source and are kept apart here.

Key:
[1] = tested on: mice; details: cited from earlier work
[2] = in vivo; details: mouse
[3] = tested on: mice; details: cited from earlier work; remark: listed apart in the source
[4] = tested on: mice (phenylquinone-induced writhing); experiment: phenylquinone writhing test (analgesic ED50), oral, mice; assay type: in vivo, female white mice; details: Mus musculus, read-out: ED50 analgesia
Method: A standard procedure for detecting and comparing the analgesic activity of compounds in this series for which there is good correlation with human efficacy is the standard phenylquinone writhing test modified from Siegmund, et. at., Proc. Soc. Exp. Biol. Med. 95, 729 (1957). A test compound suspended in 1% methylcellulose was given orally to fasted (17-21 hours) female white mice, 5-20 animals per double blind test. Aqueous (0.01% phenyl-p-benzoquinone) phenylquinone was injected intraperitoneally at 24 minutes later using 0.20 ml per mouse. […] The effective analgesic dose for 50% of the mice (ED 50) was calculated by the moving average method of Thompson, W. R., Bact. Rev. 11, 115-145 (1947).

[5] = Straub tail test (Straub tail ED50), intraperitoneal, mice; set-up: species or system CF1S female mice; details: mouse, in vivo; for ED50 at 25 min: ip, mice, intraperitoneal, within 25 minutes after dosing, read-out: ED50^ST (Straub tail ED50)
Method: Narcotic analgesics produce in mice an erection and arching of the tail (90° or more) which is referable to spinal cord stimulation. This straub tail reaction is not produced by other analgesics, including the narcotic antagonists.
The method used was modified from Shemano, I., and Wendel, H., Tox. Appl. Pharm. 6, 334-9 (1964). CF1 S female mice (18-21 g), 10-20 mice per dose were injected intraperitoneally with log scaled doses of analgesic in 1% aqueous methylcellulose. A positive Straub tail response was recorded if a tail was erected 90° or more for 5 seconds at any time within 25 minutes after dosing. A quantal Straub tail ED50 was calculated by the moving average method. (Thompson, W. R., Bact. Rev. 11, 115-145 (1947).

[6] = literature statement; cited from earlier work
[7] = Goodman & Gilman 1965; cited from earlier work
[8] = oral, Belgian Patent 802,557 compound

Oc1cccc([C@@]23CCCC[C@H]2CN(CCc2ccccc2)CC3)c1 (relative stereo) [N-phenethyl-4a-(m-hydroxyphenyl)-trans-decahydroisoquinoline]
ED50^analgesia [1, 8]: 6.6 mg/kg
selectivity ratio ([2]; po): ~1
ED50^ST [3, 8]: 10 mg/kg

COc1cccc([C@@]23CCN(CCc4ccc(C)cc4)C[C@H]2CCC(C)C3)c1 (stereo partly drawn) [N-p-methylphenethyl-4a-(m-methoxyphenyl)-6-methyl-trans-decahydroisoquinoline]
ED50 [4]: 8.7 mg/kg
ED50 at 25 min [5]: > 135 mg/kg

Cc1ccc(CCN2CC[C@]3(c4cccc(O)c4)CCCC[C@H]3C2)cc1 (relative stereo) [N-(p-methylphenethyl)-4a-(m-hydroxyphenyl)-trans-decahydroisoquinoline]
ED50 [4]: 2 mg/kg
ED50 at 25 min [5]: 93 mg/kg
selectivity ratio ([5]; ratio of Straub tail ED50 to analgesic ED50, read-out: ED50^ST /ED50^analgesia): 46

COc1cccc([C@@]23CCCC[C@H]2CN(CCc2ccc(C)cc2)CC3)c1 (relative stereo) [N-(p-methylphenethyl)-4a-(m-methoxyphenyl)-trans-decahydroisoquinoline]
ED50 [4]: 5.8 mg/kg
ED50 at 25 min [5]: 93 mg/kg

Cc1ccc(CCN2CC[C@@]3(c4cccc(O)c4)CC(C)CC[C@@H]3C2)cc1 (stereo partly drawn) [N-(p-methylphenethyl)-4a-(m-hydroxyphenyl)-6-methyl-trans-decahydroisoquinoline]
ED50 [4]: 2 mg/kg
ED50 at 25 min [5]: 135 mg/kg

CN1CCC2(c3ccccc3)CCCCC2C1 (stereo not shown) [N-methyl-4a-phenyl-decahydroisoquinoline]
analgesic activity [6]: low analgesic activity

CC1C2Cc3ccc(O)cc3C1(C)CCN2CCc1ccccc1 (stereo not shown) [Phenzaocine hydrobromide]
analgesic ED50 ([1]; mice, Shemano and Wendel 1964): 0.2 mg/kg
selectivity ratio [2]: ~2.5
Straub tail ED50 ([3]; mice, Shemano and Wendel 1964): 0.5 mg/kg

CC1C2Cc3ccc(O)cc3C1(C)CCN2CCc1ccccc1 (stereo not shown) [phenazocine, 2'-hydroxy-5,9-dimethyl-2-phenethyl-6,7-benzomorphan]
analgesic activity [6]: potent analgesic
morphine-like actions [7]: produces the entire range of morphine-like actions, including respiratory depression, constipation, and physical dependence

CN1CC[C@]23c4c5ccc(O)c4O[C@H]2[C@@H](O)C=C[C@H]3[C@H]1C5 [morphine]
ED50^analgesia ([1]; morphine, background section): 5.6 mg/kg
